From patent publication US20070203244A1, “INHIBITORS OF MEMBRANE TYPE-1 MATRIX METALLOPROTEINASE FOR THE TREATMENT OF INSULIN-DEPENDENT DIABETES MELLITUS” (priority 2006, published 2007)

Legend:
[1] = continuous oral dosing, cited from earlier work
NOD mice = experiment: Spontaneous diabetes in NOD mice, insulin jointly with AG3340; type: in vivo
Procedure: Newly diabetic NOD mice—NOD mice developed diabetes in approximately 5 months after the birth. The onset of spontaneous diabetes was identified by assessing urine glucose levels with Diastix® strips (Bayer). Mice with urine glucose levels >2000 mg/dl for three consecutive days were considered diabetic. […] Injections were continued for 40 days and then mice were sacrificed. Leukocytes and granulated β cells were stained with H&E and aldehyde fuchsin, respectively, in the sections of paraformaldehyde-fixed, paraffin-embedded, pancreata. […] To identify hormone-producing cells the sections were stained with the antibody to insulin (Linco Research, St. Charles, Mo.) and glucagons (DacoCytomation, Carpinteria, Calif.) followed by species-specific secondary horseradish peroxidase-conjugated antibody and a 3,3′-diaminobenzidine substrate.
Insulin injections were then suspended. Mice which after the onset of the disease received insulin became hyperglycemic in a matter of 2-3 days and were then sacrificed according to NIH guidelines.

MT1-MMP = settings: cited from earlier work
IS-CD8+ T cells = experiment: Homing of DiI-labeled IS-CD8+ T cells into the pancreatic islets of NOD mice; type: in vivo; settings: 24 h
Procedure: Fluorescent Tracing and Morphometric Analysis—For trafficking studies, IS-CD8^+ T cells were incubated at 1×10^7 cells/ml for 30 min at 37° C. in the dark in complete Click's medium containing 5% fetal calf serum and 0.0075 mg/ml of the fluorescent dye 1,1′-didodecyl-3,3,3′,3′-tetramethylindocarbocyanine perchlorate (DiI; Molecular Probes, Eugene, Oreg.). After incubation, the cells were washed three times with phosphatebuffered saline to remove excess DiI. Labeled IS-CD8^+ cells (1×10^7 cells) were injected intravenously in 0.2 ml of phosphate-buffered saline into irradiated (725 rads, 24 h in advance) NOD mice. Mice were sacrificed 24 h after injection of DiI-labeled cells. The spleen and the pancreata were excised and fixed in 0.1 M periodate-lysine-paraformaldehyde phosphate buffer. The organs were next sucrose-saturated, freeze-molded in OCT compound (Sakura Finetek Inc., Torrance, Calif.), and freeze-sectioned. 7-μm-thick cryostat sections of the entire pancreas were prepared at 60-μm intervals using a Leica CM1900 cryotom. Distribution of DiI-labeled CD8^+ cells within the islets was examined using a fluorescent microscope. At least 100 individual islets per mouse (4-5 mice/experimental group) were examined. The characteristic morphology of the islets is easily identified on the cryosections. DiI-labeled cells were counted within the area relevant to each individual islet (see FIG. 3 for a representative image; the islet-relevant area is depicted by the solid white line, and the islet boundaries are shown by the white dotted line). The position of each IS-CD8^+ labeled cell was determined relative to the islet boundary. The labeled cells localized within the islet boundary were considered to be “inside,” whereas the labeled cells adjacent to the islet but outside of the islet boundary were considered to be “at the entrance.” This method has been described in substantial detail (Savinov, A. Y., et al. (2003), and Savinov, A. Y., et al. (2001), which are herein incorporated by reference in their entirety for their teaching of these methods).
Fluorescent tracing and morphometric analysis—For trafficking studies, IS-CD8^+ T cells were incubated at 1×10^7 cells/ml for 30 min at 37° C. in the dark in the complete Click's medium containing 5% FCS and 0.0075 mg/ml of fluorescent dye 1,1′-didodecyl-3,3,3′,3′-tetramethylindocarbocyanine perchlorate (DiI; Molecular Probes). After incubation, the cells were washed three times with PBS to remove excess DiI. Labeled IS-CD8^+ cells (1×10^7 cells) were intravenously injected in 0.2 ml of PBS into irradiated (725 Rad, 24 h in advance) NOD mice. Mice were sacrificed 24 h after injection of DiI-labeled cells. […] In 24 h, the spleen and the pancreata were excised and fixed in 0.1 M periodate-lysine-paraformaldehyde phosphate buffer. The organs were next sucrose-saturated, freeze-molded in OCT compound (Sakura Finetek Inc.) and freeze-sectioned. 7-μm-thick cryostat sections of the entire pancreas were prepared at the 60 μm intervals using a Leica CM1900 cryotom. Distribution of DiI-labeled CD8^+ cells within the islets was examined using a fluorescent microscope. At least 100 individual islets per mouse, 4-5 mice per each experimental group, were examined. The characteristic morphology of the islets is easily identified on the cryosections. DiI-labeled cells were counted within the area relevant to each individual islet. The position of each IS-CD8^+ labeled cell was determined relative to the islet boundary. […]

[2] = AG3340 1 mg/kg i.p. with insulin, 40 days

In the case of `CC1(C)SCCN(S(=O)(=O)c2ccc(Oc3ccncc3)cc2)[C@H]1C(=O)NO` [AG3340], the “dose inducing musculoskeletal effects that required dose discontinuation in more than half of the subjects” value ([1]; 2 to 100 mg/day in two doses per day) is listed as “above 25 mg/day”, the severe dose-limiting toxicity ([1]; 2 to 100 mg/day) is listed as “did not result in severe dose-limiting toxicity” and the “islet regeneration in the pancreatic parenchyma” value (NOD mice; [2]) is listed as “de novo formation of the islet-like structures”. The “number of the intact islets and the islets with limited peri-islet insulitis” value (NOD mice; [2]) was “increase”, the “glycemia after insulin injections were suspended” value (NOD mice; insulin jointly with AG3340 for 40 days, then no external insulin) was “normoglycemic/mildly hyperglycemic for several weeks” and the “severity of insulitis compared to the control” value (NOD mice; insulin s.c. jointly with AG3340 1 mg/kg i.p. every two-three days, 40 days) was “significant and promising reduction”. The “return of overtly diabetic mice to normoglycemia” value (NOD mice; short-term treatment, AG3340 1 mg/kg i.p. with insulin, 40 days) was “not sufficient”, the “Ki for MT1-MMP” value (MT1-MMP) was “sub-nanomolar” and the “IS-CD8+ cells found inside the islets” value (IS-CD8+ T cells; Example 1: cells co-incubated 2 h with AG3340 50 μM before injection) was “smaller number of cells”. For the same compound, the “reduction in the T cell homing” value (IS-CD8+ T cells; Example 2: AG3340 1 mg/kg i.v. 30 min before cells) was 50% and the “homing of IS-CD8+ cells inside the islets” value (IS-CD8+ T cells; Example 3: inhibitor i.p. before cells, SB-3CT and EGCG at much higher concentrations than AG3340) was “several-fold less cells”.
